# Measurements published in patent US5037826A, “1-substituted naphthyridine and pyridopyrazine derivatives” (Schering Corporation, priority 1986, dated 1991).
# Columns and labels:
# [1] = Carboni et al., Farmaco, Ed. Sci., 1973; cited from earlier work
# [2] = test system: antigen induced broncho-constriction in sensitized guinea pigs; assay: Inhibition of anaphylactic bronchospasm in sensitized guinea pigs (ovalbumin challenge); assay type: in vivo, guinea pig; settings: 2 hours before ovalbumin challenge, vs vehicle-treated control
# Procedure: The compounds of this invention may be employed as anti-allergy agents in the treatment of, for example, asthma, allergic or seasonal rhinitis, and/or chronic bronchitis. The anti-allergy method of this invention is identified by tests which measure a compound's inhibition of anaphylactic bronchosoasm in sensitized guinea pigs having antigen induced broncho-constriction.
# In one such test procedure, male Hartley guinea pigs (250-300 g) are sensitized with 5 mg ovalbumin injected i.p. and 5 mg injected s.c. in 1 ml saline on day 1 and 5 mg ovalbumin injected i.p. on day 4. The sensitized animals are used 3-4 weeks later at which time they weigh 450-500 g.
# The sensitized guinea pigs are fasted overnight and the following morning are anesthetized with 0.9 ml/kg i.p. of dialurethane (0.1 g/ml diallybarbituric acid, 0.4 g/ml ethylurea and 0.4 g/ml urethane). The trachea are cannulated and the animals are ventilated by a Harvard® rodent respirator at 50 strokes/minute with a stroke volume of 5 ml. A side arm to the tracheal cannula is connected to a pressure transducer (Harvard) to obtain a continuous measure of intratracheal pressure which is recorded on a polygraph (Harvard). The jugular vein is cannulated for the i.v. administration of substances. The animals are challenged with antigen (0.5% ovalbumin) as an aerosol generated from a DeVilbiss® Model 65 ultrasonic nebulizer and delivered through the tracheal cannula for 30 seconds. Bronchoconstriction is measured as the peak increase in intratracheal pressure occurring within 5 minutes after antigen challenge.
# The sensitized guinea pigs are injected i.v. with 1 mg/kg propranolol, 5 mg/kg indomethacin and 2 mg/kg mepyramine given together in a volume of 1 ml/kg. Fifteen minutes later the animals are challenged with nebulized ovalbumin. Test compounds are administered orally 2 hours before challenge with ovalbumin. Suppression of anaphylactic bronchospasm is expressed as a percent inhibition of the peak increase in intratracheal pressure by comparison to a vehicle-treated control group.
# [3] = test system: reverse passive Arthus reaction in the pleural cavity of rats; assay: Reverse passive Arthus reaction in the pleural cavity of rats (Myers et al.); assay type: in vivo; settings: Rattus norvegicus, po; pleural fluid
# Procedure: Another procedure for testing for acute anti-inflammatory activity measures the reverse passive Arthus reaction in the pleural cavity of rats as described in Myers et al., Inflammation, Vol. 9, No. 1, 1985, pp. 91-98. Compound A provided an ED50 value (fluid) of about 5.0 mg/kg p.o. in such procedure.
# [4] = test system: GVHR splenomegaly in C57 B1/6XA/J(F6AF1) male mice; assay: Graft vs. host reaction (GVHR), spleen weight; assay type: in vivo, mouse; settings: 100 mg/kg orally for 10 days; compared to untreated animals
# Procedure: To induce a GVHR, C57 B1/6XA/J(F6AF1) male mice were injected intravenously with parental (C57B/6J) spleen and lymph node cells. 3-(2-Hydroxyethyl)-1-phenyl-1,8-naphthyridin-2(1H)-one (Compound A) was then administered orally for 10 days beginning on the day prior to the cell transfer. On the day following the last treatment, the animals were sacrificed, and their spleens were excised and weighed. The enlargement of the spleen of the host is a result of a GVHR. To some extent it is the host's own cells which infiltrate and enlarge the spleen although they do this because of the presence of graft cells reacting against the host. The amount of spleen enlargement, splenomegaly, is taken as a measure of the severity of the GVHR.
# In carrying out the GVHR the animal in the experimental group is injected with parental cells, cells of the same species but of different genotype, which cause a weight increase of the spleen. […] The effectiveness of the compounds administered to the mice in the experimental group is measured by comparing the spleen weight of the untreated and treated GVH animal with that of the syngeneic control. Compound A in this test procedure reduced spleen weight by 92% at a dose of 100 mg/kg as compared to the untreated animals.
# [5] = test system: spleen weight of BDF1 mice; assay: Splenic atrophy, decrease in spleen weight; assay type: in vivo; settings: Mus musculus, oral, seven consecutive days
# Procedure: The immunosuppressive activity of the compounds may also be shown by a decrease in spleen weight after dosing BDF1 mice orally with the drug for seven (7) consecutive days. The mice are sacrificed on the eighth day. The percent decrease in spleen weight is measured for each dosage level. In this procedure, Compound A provided an ED30 of less than 25 mg/kg.
# [6] = test system: Reversed Passive Arthus Response in the right rear paw of rats; assay: Reversed Passive Arthus Response (RPAR), rat paw volume; assay type: in vivo; settings: 25 mg/kg p.o. once daily for 3 days
# Procedure: Male Lewis inbred albino rats weighing 180-200 grams obtained from Charles River Breeding Laboratories are used in these experiments. The rats are housed 3 animals/cage and food and water are allowed ad libitum. The animals are numbered 1-3 in each cage and color marked for identification purposes.
# All reagents and drugs are prepared just prior to the study. Crystallized and lyophilized bovine serum albumin (BSA), available from Sigma Chemical Company, is solubilized without shaking in cold, sterile, pyrogen-free saline (10 mg/ml). Lyophilized anti-bovine serum albumin (IgG fraction), obtained from Cappel Laboratories, is suspended in sterile distilled water and diluted with cold, pyrogen-free saline (PFS) just prior to use. […]
# Groups of animals (6/group) are dosed with drug in MC by gavace once daily for 3 days. […] The volume of mercury displaced is converted to weight and recorded. This value is considered to be the control reading for the animal. Paw volumes are subsequently recorded with a plethysmograph during the development of the inflammation at 2 and 4 hours post-challenge.
# Results are expressed by the chance in paw volume (Δ paw volume) from the control reading for each animal to that recorded 2 and 4 hours post-challenge. […] Differences from control in drug-treated groups are expressed as percent change from control are determined.
compound,measurement,setting,value
"O=c1ccc2ccc(OCc3ccccc3)nc2n1Cc1ccccc1 [1-benzyl-7-benzyloxy-[1,8]naphthyridin-2-one]",antibacterial activity,[1],inactive
O=c1c(CCO)cc2cccnc2n1-c1cccc(Cl)c1 [B],% Inhibition of anaphylactic bronchospasm (peak increase in intratracheal pressure),[2]; dose p.o. 2 mg/kg,79%
"O=c1c(CCO)cc2cccnc2n1-c1ccccc1 [Compound A, 3-(2-Hydroxyethyl)-1-phenyl-1,8-naphthyridin-2(1H)-one]",% Inhibition of anaphylactic bronchospasm (peak increase in intratracheal pressure),[2]; dose p.o. 5 mg/kg,78%
same,ED50,[3],~5 mg/kg
same,reduction of spleen weight,[4],92%
same,ED30,[5],< 25 mg/kg
COCCOc1c(C)c2cccnc2n(-c2ccccc2)c1=O [Compound C],% Inhibition of anaphylactic bronchospasm (peak increase in intratracheal pressure),[2]; dose p.o. 5 mg/kg,25%
same,% inhibition (Δ paw volume) after 2 hours,[6]; 2 hours post-challenge,74%
same,% inhibition (Δ paw volume) after 4 hours,[6]; 4 hours post-challenge,36%
